This is an account of results in patent US5580552A, “7-glycosyloxybenzopyran derivative and antiallergic agent containing the derivative as active ingredient” (priority 1994, dated 1996).

In assay [1] the test system is contact dermatitis induced by picryl chloride. Put plainly: Effect on contact dermatitis induced by picryl chloride in mice. The format is in vivo. To be noted: for inhibition in vivo at 50 mg/kg: 50 mg/kg oral, 1 hour before and 16 hours after challenge, 24 hours after challenge. The protocol:
Effect on contact dermatitis induced by picryl chloride in mice
The delayed type hypersensitization is inhibited by steroid drugs,but can not be effected by known anti-allergic agents. In the following, the method of the pharmacological test will be explained.
Method: Mice, shaved their abdominal skin on previous day, were immunized by applying 0.1 ml of acetone containing 7 mg of picryl chloride to the skin of the abdomen. 7 days after immunization, the thickness of the ear was measured with a dial thickness gauge, then mice were challenged by painting 5 μl of 1% picryl chloride olive oil solution to each side skin of left ear. 24 hours after challenge, the thickness of the left ear was measured again and the increase (%) of thickness was calculated according to equation 2. The compounds of the present invention (test compounds) suspended in 0.5% CMCNa were forcibly administered orally at a dose of 50 mg/kg at 1 hour before and 16 hours after challenge. As vehicle control group, only 0.5% CMCNa solution were administered orally, and as positive control group, Prednisolone, steroid hormone, and Tranilast were administered orally at the doses of 10 mg/kg and 100 mg/kg, respectively.
Increase (%)=(A-B)/B×100 (Equation 2)
A: thickness of the ear at 24 hours after challenge
B: thickness of the ear before challenge
Inhibition (%)=(C-D)/C×100 (equation 3)
C: The increase (%) in vehicle control group
D: The increase (%) in test compounds group or positive control group

For assay [2], the system named is homologous passive cutaneous anaphylaxis (PCA) reaction. Put plainly: Effect on homologous passive cutaneous anaphylaxis (PCA) reaction in rats. To be noted: Rattus norvegicus, po, 0.5 h; for inhibition in vivo at 50 mg/kg: 50 mg/kg oral, 1 hour before challenge (TABLE 2). Type of assay: in vivo, rats (male wistar). The protocol: Effect on homologous passive cutaneous anaphylaxis (PCA) reaction in rats.
This experimental animal model is caused by immediate type allergic reaction namely, antigen-antibody reaction. In the following, the method of this pharmacological test will be explained.
Method: Male wistar rats (9 weeks old) were intradermally administered 0.05 ml of anti-serum against dinitrophenylated ascaris (DNP-As) into two sites on the shaved dorsal skin. 48 hours later, 7-glycosyloxybenzopyran derivatives (test compounds) suspended in 0.5% sodium carboxymethylcellulose (CMCNa) were given orally at a dose of 50 mg/kg to the animals. One hour after administration of Test compounds, the animals were induced anaphylaxis by injection of saline (1 ml) dissolving 5 mg of Evans Blue and 1 mg of Trinitrophenylated ascaris (TNP-As) into the tail vein of the animals. 30 minutes after induction of anaphylaxis, animals were anesthetized by ether and killed by bleeding, and were flayed dorsal skin. The determination of extravasated dye was performed according to the method of Katayama et al. (Microbiol. Immunol., Vol.22, P 89-101, 1978). As vehicle control group, only 0.5% CMCNa solution was administered orally, and as positive control group, Tranilast suspended in 0.5% CMCNa was administered orally at a dose of 100 mg/kg to the animals with the same method as the test compounds groups. Each experimental group consisted of 5 rats. [formula]

Assay [3] deals with experimental asthma model (airway resistance). Put plainly: Effect on experimental asthma model in guinea pigs (airway resistance). Type of assay: in vivo, guinea pigs (male hartley). To be noted: Cavia porcellus, 0.5 h; for inhibition in vivo at 50 mg/kg: po, 50 mg/kg oral (TABLE 6). The protocol:
Effect on experimental asthma model in guinea pigs
The asthma is typical allergic disease and we carried out this pharmacological test by well known experimental asthma model in guinea pigs in order to comfirm that the compounds of the present invention suppress the asthma. In the following, the method of the pharmacological test will be explained.
Method: Male hartley guinea pigs were immunized by intraperitoneal injection of saline (1ml) containing 5 mg of ovalbumine (OVA) three times at interval of one week. 2 weeks after final immunization, the animals were challenged by inhalation of 1% OVA-saline solution for 1 minute and then the airway resistance of the animals were measured for 30 minutes with PULMOS-1 (Medical Interface Project Station Inc.) after the inhalation. The compounds of the present invention (test compounds) suspended in 0.5% CMCNa were given orally at a dose of 50 mg/kg. As positive control group, Disodium Cromoglicate (DSCG), well known anti-allergic agent, in saline were injected at a dose of 20 mg/kg into the vein of the animals. As vehicle control group, only 0.5% CMCNa solution were given orally. The inhibition (%) of the airway resistance in vehicle control group was calculated according to equation 5 and the result was shown in TABLE 6. Each experimental group consisted of 5 guinea pigs. [formula]
A: Maximum airway resistance in vehicle control group
B: Maximum airway resistance in test compounds group or positive control group

Setting [4] is: Mus musculus, po, 24 h, read-out: Inhibition (%) against the increase of ear thickness.

As to `CC(C)Oc1c(O)c(=O)oc2cc(O[C@@H]3O[C@H](CO)[C@@H](O)[C@H](O)[C@H]3O)ccc12` [compound 113], the results for the inhibition in vivo at 50 mg/kg in assay [1] (setting [4]), in assay [2] and in assay [3] were 45.5%, 40.3% and 56.6%, respectively.
The like results for `CCCCCCCCCCCCOc1c(O)c2ccc(O[C@@H]3O[C@H](CO)[C@@H](O)[C@H](O)[C@H]3O)cc2oc1=O` [compound 41] were, in that order, 60.1%, 55.4% and 70.2%.
For `CC1CCC(Oc2c(O)c3ccc(O[C@@H]4O[C@H](CO)[C@@H](O)[C@H](O)[C@H]4O)cc3oc2=O)CC1` (some centres unmarked) [compound 43], in that order: 55.4%, 57.9% and 70.7%.
For `CCCCCCCCCCCCOc1c(O)c(=O)oc2cc(O[C@H]3O[C@H](CO)[C@@H](O)[C@H](O)[C@@H]3O)ccc12` [compound 134], the results for the inhibition in vivo at 50 mg/kg in assay [1] (setting [4]), in assay [2] and in assay [3] were 43.7%, 41.5% and 45.9%, respectively.
As to `COc1c(O)c(=O)oc2cc(O[C@H]3O[C@H](CO)[C@@H](O)[C@H](O)[C@@H]3O)ccc12` [compound 131], the inhibition in vivo at 50 mg/kg in assay [1] (setting [4]) was 40.9%; in assay [2], 41.2%; in assay [3], 42.5%.
For `CC1CCC(Oc2c(O)c(=O)oc3cc(O[C@H]4O[C@H](CO)[C@@H](O)[C@H](O)[C@@H]4O)ccc23)CC1` (some centres unmarked) [compound 136], in that order: 41.2%, 42.2% and 51.2%.
On to `O=c1oc2cc(O[C@@H]3O[C@H](CO)[C@@H](O)[C@H](O)[C@H]3O)ccc2c(OCc2ccccc2)c1O` [compound 152], for which the inhibition in vivo at 50 mg/kg in assay [1] (setting [4]) turned out to be 43.2%; in assay [2] it was 41.3%; in assay [3] it was 52.4%.
For `C=COc1c(O)c2ccc(O[C@H]3O[C@H](CO)[C@@H](O)[C@H](O)[C@@H]3O)cc2oc1=O` [compound 69], in that order: 49.9%, 48.1% and 59.3%.
Take `CCCCCCOc1c(O)c2ccc(O[C@@H]3O[C@H](CO)[C@H](O)[C@H](O)[C@H]3O)cc2oc1=O` [compound 87]: the inhibition in vivo at 50 mg/kg in assay [1] (setting [4]) worked out at 64.9%; in assay [2], 60.3%; in assay [3], 79.5%.
The like results for `CC1CCC(Oc2c(O)c(=O)oc3cc(O[C@@H]4O[C@H](CO)[C@@H](O)[C@H](O)[C@H]4O)ccc23)CC1` (some centres unmarked) [compound 114] were, in that order, 47.3%, 45.3% and 59.7%.
For `CC1CCC(Oc2c(O)c3ccc(O[C@H]4O[C@H](CO)[C@@H](O)[C@H](O)[C@@H]4O)cc3oc2=O)CC1` (some centres unmarked) [compound 68], in that order: 47.3%, 49.5% and 63.5%.
The like results for `CCC=CCCOc1c(O)c2ccc(O[C@@H]3O[C@H](CO)[C@H](O)[C@H](O)[C@H]3O)cc2oc1=O` [compound 94] were, in that order, 51.2%, 53.7% and 73.2%.
Turning to `CCCCCCCCOc1c(O)c(=O)oc2cc(O[C@@H]3O[C@H](CO)[C@H](O)[C@H](O)[C@H]3O)ccc12` [compound 23, 3-hydroxy-4-octyloxy-7-(β-D-galactopyranosyloxy)-2H-1-benzopyran-2-one], the figures for the inhibition in vivo at 50 mg/kg in assay [1] (setting [4]), in assay [2] and in assay [3] were 49.3%, 44.7% and 61.5%, respectively.
The like results for `CCCCCCCCOc1c(OC(C)=O)c(=O)oc2cc(O[C@@H]3O[C@H](COC(C)=O)[C@@H](OC(C)=O)[C@H](OC(C)=O)[C@H]3OC(C)=O)ccc12` [compound 16, 3-acetoxy-4-octyloxy-7-(tetra-O-acetyl-β-D-glucopyranosyloxy)-2H-1-benzopyran-2-one] were, in that order, 43.5%, 42.3% and 40.2%.
For `CCCCCCCCOc1c(O)c(=O)oc2cc(O[C@H]3O[C@H](CO)[C@@H](O)[C@H](O)[C@@H]3O)ccc12` [compound 132], the inhibition in vivo at 50 mg/kg came out at 43.2% in assay [1] (setting [4]), 42.9% in assay [2] and 50.1% in assay [3].
On to `CC(C)Oc1c(O)c2ccc(O[C@H]3O[C@H](CO)[C@@H](O)[C@H](O)[C@@H]3O)cc2oc1=O` [compound 67], for which the inhibition in vivo at 50 mg/kg in assay [1] (setting [4]) is 53.2%; in assay [2] it was 50.4%; in assay [3] it was 60.2%.
The like results for `CCCCCCCCCCOc1c(O)c2ccc(O[C@@H]3O[C@H](CO)[C@H](O)[C@H](O)[C@H]3O)cc2oc1=O` [compound 89] were, in that order, 62.3%, 57.8% and 77.3%.
For the compound `CCC=CCCOc1c(O)c(=O)oc2cc(O[C@@H]3O[C@H](CO)[C@@H](O)[C@H](O)[C@H]3O)ccc12` [compound 116], the inhibition in vivo at 50 mg/kg was found to be 44.4% in assay [1] (setting [4]), 46.1% in assay [2] and 62.8% in assay [3].
The like results for `CCCCCCOc1c(O)c(=O)oc2cc(O[C@@H]3O[C@H](CO)[C@@H](O)[C@H](O)[C@H]3O)ccc12` [compound 19, 3-hydroxy-4-hexyloxy-7-(β-D-glucopyranosyloxy)-2H-1-benzopyran-2-one] were, in that order, 47.1%, 44.9% and 65.2%.
In the case of `COc1c(O)c2ccc(O[C@H]3O[C@H](CO)[C@@H](O)[C@H](O)[C@@H]3O)cc2oc1=O` [compound 8, 3-methoxy-4-hydroxy-7-(α-D-mannopyranosyloxy)-2H-1-benzopyran-2-one], the inhibition in vivo at 50 mg/kg in assay [1] (setting [4]) was 50.3%; in assay [2], 49.2%; in assay [3] it was 59.2%.
`COc1ccc(/C=C/C(=O)Nc2ccccc2C(=O)O)cc1OC` [Tranilast, reference compound]: the inhibition in vivo at 100 mg/kg in assay [1] (Mus musculus, po, 24 h, positive control Tranilast, 100 mg/kg oral, read-out: Inhibition (%) against the increase of ear thickness) worked out at 4.3%; in assay [2] (positive control, 100 mg/kg oral (TABLE 2)) it was 54.6%. The “inhibition of delayed type hypersensitization” value in assay [1] (Tranilast, 100 mg/kg oral) is listed as “did not inhibit delayed type hypersensitization”.
In assay [3] (iv, positive control DSCG, 20 mg/kg into the vein (TABLE 6)), `O=C(O)c1cc(=O)c2c(OCC(O)COc3cccc4oc(C(=O)O)cc(=O)c34)cccc2o1` [DSCG, Disodium Cromoglicate, reference compound] gave an inhibition in vivo at 20 mg/kg of 51.2%.
As to `C[C@]12C=CC(=O)C=C1CC[C@@H]1[C@@H]2[C@@H](O)C[C@@]2(C)[C@H]1CC[C@]2(O)C(=O)CO` [Prednisolone, reference compound], in assay [1] (setting [4]), the inhibition in vivo at 10 mg/kg was 63.7%.
